Results on 6 molecules are retold here after patent publication US20070276013A1, “Active Substance Combinations with Insecticidal Properties” (priority 2004, published 2007).

“And” between values parts separate entries of the source, which are not always exact repeats. Equal entries are not always repeated.

Holding throughout (type): in vivo
In one data set the test system is Myzus persicae. Description: Myzus persicae test, immersion of infested cabbage leaves. The text has this:
(§1) The action to be expected for a given combination of two active substance can be calculated as follows according to S. R. Colby, Weeds 15 (1967), 20-22:
(§2) If • X stands for the mortality rate expressed in % of the untreated control upon the use of active substance A at an application amount of m g/ha or in a concentration of m ppm, • Y stands for the mortality rate expressed in % of the untreated control upon the use of active substance B at an application amount of n g/ha or in a concentration of n ppm, and • E stands for the mortality rate expressed in % of the untreated control upon the use of active substances A and B at an application amount of m and n g/ha or in a concentration of m and n ppm, then [formula]
(§3) If the actual insecticidal mortality rate is greater than calculated, then the combination is […] in its mortality; that is to say, a synergistic effect is present. In this case the mortality rate that is actually observed must be greater than the value for the expected mortality rate (E) calculated from the formula presented above.
(§4) To produce a suitable active substance preparation, one mixes 1 part by weight of active substance with the listed amount of solvent and emulsifier and dilutes the concentrate with water containing an emulsifier at the desired concentration.
Cabbage leaves (Brassica oleracea) that are severely afflicted by the green peach aphid (Myzus persicae) are treated by immersion in the active substance preparation of the desired concentration.
After […] the mortality in % is determined. In the process, 100% means that all green peach aphids were killed; 0% means that no green peach aphids were killed. One calculates the determined mortality rate according to the Colby formula (see page 1).

Data set [1] concerns Phaedon cochleariae larvae. Description: Phaedon cochleariae larvae test, treated cabbage leaves. Particulars: 144 h, after 6 d.
Text: as §1, §2, §3, §4
Cabbage leaves (Brassica oleracea) are treated by immersion in the active substance preparation of the desired concentration and filled with mustard beetle larvae (Phaedon cochleariae) for as long as the leaves are still damp.
After […] the mortality in % is determined. In the process, 100% means that all beetle larvae were killed; 0% means that no beetle larvae were killed. One determines the determined mortality rate according to the Colby formula (see page 1).

The test system of data set [2] is Plutella xylostella (resistant strain). As to the kind of experiment: Plutella xylostella test (resistant strain), treated cabbage leaves. Particulars: 144 h, after 6 d.
Text: as §1, §2, §3, §4
(§5) Cabbage leaves (Brassica oleracea) are treated by immersion in the active substance preparation of the desired concentration and filled with cabbage moth larvae (Plutella xylostella) for as long as the leaves are still damp.
(§6) After […] the mortality in % is determined. In the process, 100% means that all larvae were killed; 0% means that no larvae were killed. One determines the determined mortality rate according to the Colby formula (see page 1).

Data set [3] has as its system Plutella xylostella (sensitive strain). Description: Plutella xylostella test (sensitive strain), treated cabbage leaves. Conditions: 144 h, after 6 d, normal sensitivity.
Text: as §1, §2, §3, §4, §5, §6

A further data set relates to Heliothis armigera. As to the kind of experiment: Heliothis armigera test, treated cotton leaves with larvae. Particulars: Helicoverpa armigera, 144 h, after 6 d.
Text: as §1, §2, §3, §4
Cotton leaves (Gossypium hirsutum) are treated by immersion in the active substance preparation of the desired concentration and filled with cotton bollworm larvae (Heliothis armigera) for as long as the leaves are still damp.
as §6

Another data set concerns Aphis gossypii. Description: Aphis gossypii test, immersion of infested cotton leaves. Particulars: 24 h, after 1 d.
Text: as §1, §2
(§7) If the actual insecticidal mortality rate is greater than calculated, then the combination is […] in its mortality; that is to say, a synergistic effect is present. In this case the mortality rate that is actually observed must be greater than the value for the expected mortality rate (E) calculated from the formula presented above. […]
After […] the mortality in % is determined. […] One calculates the determined mortality rate according to the Colby formula (see page 1).

The next data set deals with Spodoptera exigua. As to the kind of experiment: Spodoptera exigua test, treated cabbage leaves. Conditions: 144 h, after 6 d.
Text: as §1, §2, §7
(§8) After […] the mortality in % is determined. […] One determines the determined mortality rate according to the Colby formula (see page 1).

A further data set concerns Spodoptera frugiperda. As to the kind of experiment: Spodoptera frugiperda test, treated cabbage leaves. Particulars: 72 h, after 3 d.
Text: as §1, §2, §7, §8

Regarding `Cc1c(COC(=O)C2C(/C=C(\Cl)C(F)(F)F)C2(C)C)cccc1-c1ccccc1` (stereo not drawn) [Bifenthrin], the mortality – broadly, the percentage killed – at 0.16 ppm in the data set with Myzus persicae (Myzus persicae, 144 h, read-out: Mortality in % after 6 d, 0.16 ppm, after 6 d) was 0%. Further, the mortality at 0.8 ppm in data set [1] (0.8 ppm) is 35%.
For `CC1(C)C(C=C(Cl)Cl)C1C(=O)OC(C#N)c1cccc(Oc2ccccc2)c1` (stereo not drawn) [Alpha-cypermethrin, Alpha-Cypermethrin], in data set [1], the mortality at 0.16 ppm was 5%.
As to `CC1(C)C(/C=C(\Cl)C(F)(F)F)C1C(=O)OC(C#N)c1cccc(Oc2ccccc2)c1` (stereo not drawn) [Lambda-cyhalothrin], in data set [2], the mortality at 0.6 ppm came out at 40%. In addition, the mortality at 0.024 ppm in data set [3] was 40%. Further, the mortality at 0.12 ppm with Heliothis armigera was determined as 55%.
As to `N#C/N=C1\SCCN1Cc1ccc(Cl)nc1` [Thiacloprid, thiacloprid], the “Mortality in % after 6 d” value in the data set on Myzus persicae (0.8 ppm, after 6 d) is 0% and 10%. For the same molecule, the mortality at 0.6 ppm came out at 35% with Myzus persicae (Myzus persicae, 144 h, read-out: Mortality in % after 6 d, 0.6 ppm, after 6 d); 35% with Aphis gossypii (0.6 ppm); 0% in data set [3] (0.6 ppm); 0% with Heliothis armigera (0.6 ppm); 0% in the data set with Spodoptera frugiperda (0.6 ppm). The mortality at 3 ppm in data set [2] (3 ppm) was 0%; in data set [1] (3 ppm) it was 15%. For the same molecule, the mortality at 15 ppm was 10% in data set [2] (15 ppm) and 0% in the data set on Spodoptera exigua (15 ppm). The mortality at 20 ppm in data set [1] (20 ppm) is 40%. Further, in the data set on Heliothis armigera, the mortality at 0.12 ppm was 0%.
Consider `CC1(C)[C@H](C(=O)O[C@H](C#N)c2cccc(Oc3ccccc3)c2)[C@@H]1C=C(Br)Br` [Deltamethrin], for which, in data set [1], the mortality at 0.16 ppm worked out at 30%.
Regarding `CC1(C)C(C=C(Cl)Cl)C1C(=O)OC(C#N)c1ccc(F)c(Oc2ccccc2)c1` (stereo not drawn) [Beta-cyfluthrin, Betacyfluthrin], the mortality at 0.12 ppm is 0% in the data set with Myzus persicae (Myzus persicae, 144 h, read-out: Mortality in % after 6 d, 0.12 ppm, after 6 d); 5% in the data set with Aphis gossypii (0.12 ppm); 15% in data set [1] (0.12 ppm); 0% with Heliothis armigera; 5% in the data set with Spodoptera frugiperda (0.12 ppm). Besides, the mortality at 0.6 ppm in data set [2] worked out at 35%; in the data set with Spodoptera exigua (0.6 ppm), 25%. In addition, the mortality at 0.024 ppm in data set [3] was 10%.
